This test has as its target USP30 (Homo sapiens (Human), UniProt Q70CQ3). Put plainly: USP30 biochemical IC50 assay (fluorescence polarisation). As to conditions: enzyme and compound incubated 30 min at room temp; TAMRA labelled peptide-ubiquitin substrate 50 nM; read after 2 hr incubation; read-out: IC50 range. How it is done:
USP30 Biochemical IC50 Assay
Dilution plates were prepared at 21 times the final concentration ([…] for a final concentration of 100 μM) in 50% DMSO in a 96-well polypropylene V-bottom plate (Greiner #651201). A typical 8-point dilution series to be 100, 30, 10, 3, 1, 0.3, 0.1, […].
Reactions were performed in duplicate in black 384 well plates (small volume, Greiner 784076) in a final reaction volume of 21 μl. Either 1 μl of 50% DMSO or diluted compound was added to the plate. USP30 was diluted in reaction buffer (40 mM Tris, pH 7.5, 0.005% Tween 20, 0.5 mg/ml BSA, 5 mM beta-mercaptoethanol) to the equivalent of 0.05 µl/well and 10 μl of diluted USP30 was added to the compound. Enzyme and compound were incubated for 30 min at room temp. Reactions were initiated by the addition of 50 nM of TAMRA labelled peptide linked to ubiquitin via an iso-peptide bond as fluorescence polarisation substrate. Reactions were read immediately after addition of substrate and following a 2 hr incubation at room temperature. Readings were performed on a Pherastar Plus (BMG Labtech). λ Excitation 540 nm; λ Emission 590 nm.
Background: Fluorescence polarisation rises when a labelled molecule tumbles more slowly, as on binding a larger partner.

USP30, sequence (Q70CQ3 57-517): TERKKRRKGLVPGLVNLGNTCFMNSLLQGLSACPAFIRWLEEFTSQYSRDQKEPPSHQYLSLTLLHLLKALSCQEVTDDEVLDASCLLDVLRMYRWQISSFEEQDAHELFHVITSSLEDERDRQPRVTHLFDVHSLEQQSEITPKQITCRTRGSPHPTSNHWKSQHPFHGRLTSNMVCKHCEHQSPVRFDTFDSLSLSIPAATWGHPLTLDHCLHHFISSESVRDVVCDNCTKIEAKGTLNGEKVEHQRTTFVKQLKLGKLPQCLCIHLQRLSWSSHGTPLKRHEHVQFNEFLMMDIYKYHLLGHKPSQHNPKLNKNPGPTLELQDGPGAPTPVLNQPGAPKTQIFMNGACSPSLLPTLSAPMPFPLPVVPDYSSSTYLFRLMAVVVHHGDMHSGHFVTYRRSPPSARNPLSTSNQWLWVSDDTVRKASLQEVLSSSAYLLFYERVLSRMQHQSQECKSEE

As a reminder, the IC50 is the point on the concentration scale where inhibition reaches its midpoint. For `N#CN1CC[C@@H](C(=O)N2CCc3ccc(-c4ccccc4)cc32)C1` [Example 11, (R)-3-(6-Phenylindoline-1-carbonyl)pyrrolidine-1-carbonitrile], the IC50 lay within 1000 to 10000 nM.
The same measure for `CC(C)Cn1nccc1-c1ccc2c(c1)CCN2C(=O)C1(F)CCN(C#N)C1` (centres unmarked) [Example 58, 3-Fluoro-3-(5-(1-isobutyl-1H-pyrazol-5-yl)indoline-1-carbonyl)pyrrolidine-1-carbonitrile]: 1000 to 10000 nM; for `N#CN1CCC(F)(C(=O)N2CCc3cc(-c4ccnn4Cc4ccccc4)ccc32)C1` (centres unmarked) [Example 35, 3-(5-(1-Benzyl-1H-pyrazol-5-yl)indoline-1-carbonyl)-3-fluoropyrrolidine-1-carbonitrile]: 1000 to 10000 nM.
The figure for `CN(C(=O)C1(F)CCN(C#N)C1)c1cc(-c2ccccc2)on1` (centres unmarked) [Example 33, 1-Cyano-3-fluoro-N-methyl-N-(5-phenylisoxazol-3-yl)pyrrolidine-3-carboxamide] is 100 to 1000 nM; for `C[C@@H]1CN(C#N)C[C@H]1C(=O)N1CCc2cc(-c3ccccc3Cl)ccc21` (relative stereo) [Example 13, (trans)-3-(5-(2-Chlorophenyl)indoline-1-carbonyl)-4-methylpyrrolidine-1-carbonitrile] it is 100 to 1000 nM; for `N#CN1CC[C@@H](C(=O)N2CCc3cc(-c4cccc5[nH]ncc45)cnc32)C1` [Example 61, (R)-3-(5-(1H-Indazol-4-yl)-2,3-dihydro-1H-pyrrolo[2,3-b]pyridine-1-carbonyl)-pyrrolidine-1-carbonitrile] it is 1000 to 10000 nM.
The same measure for `N#CN1CC[C@@H](C(=O)N2CCc3cc(-c4ccccc4)ccc32)C1` [Example 17, (R)-3-(5-Phenylindoline-1-carbonyl)pyrrolidine-1-carbonitrile]: 1000 to 10000 nM; for `N#CN1CCC(F)(C(=O)N2CCc3cc(-c4ccccc4)ccc32)C1` (centres unmarked) [Example 14, 3-Fluoro-3-(5-phenylindoline-1-carbonyl)pyrrolidine-1-carbonitrile]: 100 to 1000 nM.
Turning to `CN1CCN(c2ccc(-c3ccc4c(c3)CCN4C(=O)C3(F)CCN(C#N)C3)cc2)CC1` (centres unmarked) [Example 37, 3-Fluoro-3-(5-(4-(4-methylpiperazin-1-yl)phenyl)indoline-1-carbonyl)pyrrolidine-1-carbonitrile], the IC50 fell in the range of 100 to 1000 nM.
As for `N#CN1CC[C@@](F)(C(=O)N2CCc3cc(-c4ccccc4)ccc32)C1` [Example 53, (S)-3-Fluoro-3-(5-phenylindoline-1-carbonyl)pyrrolidine-1-carbonitrile], the IC50 was 100 to 1000 nM.
In the case of `CC(C)N(C(=O)C1CCN(C#N)C1)c1nc(-c2ccccc2)cs1` (centres unmarked) [Example 7, 1-Cyano-N-isopropyl-N-(4-phenylthiazol-2-yl)pyrrolidine-3-carboxamide], the IC50 was 1000 to 10000 nM.
Turning to `COc1ccc(-c2ccc3c(c2)CCN3C(=O)C2(F)CCN(C#N)C2)cn1` (centres unmarked) [Example 43, 3-Fluoro-3-(5-(6-methoxypyridin-3-yl)indoline-1-carbonyl)pyrrolidine-1-carbonitrile], the IC50 lay in the range of 100 to 1000 nM.
As to `N#CN1CCC(F)(C(=O)N2CCc3ccc(-c4ccccc4)cc32)C1` (centres unmarked) [Example 15, 3-Fluoro-3-(6-phenylindoline-1-carbonyl)pyrrolidine-1-carbonitrile], the IC50 fell in the range of 100 to 1000 nM.
The same measure for `C[C@H]1CN(C#N)C[C@@H]1C(=O)N1CCc2cc(-c3ccccc3)ccc21` [Example 20, (3R,4R)-3-Methyl-4-(5-phenylindoline-1-carbonyl)pyrrolidine-1-carbonitrile]: 1000 to 10000 nM; for `CN(C(=O)[C@H]1CCN(C#N)C1)c1cccc(-c2ccccc2)n1` [Example 5, (S)-1-Cyano-N-methyl-N-(6-phenylpyridin-2-yl)pyrrolidine-3-carboxamide]: 1000 to 10000 nM.
As for `Cc1ccc2[nH]ncc2c1-c1ccc2c(c1)CCN2C(=O)C1(F)CCN(C#N)C1` (centres unmarked) [Example 41, 3-Fluoro-3-(5-(5-methyl-1H-indazol-4-yl)indoline-1-carbonyl)pyrrolidine-1-carbonitrile], the IC50 fell in the range of 100 to 1000 nM.
Take `Cc1ccc(F)c(-c2ccc3c(c2)CCN3C(=O)C2(F)CCN(C#N)C2)c1` (centres unmarked) [Example 40, 3-Fluoro-3-(5-(2-fluoro-5-methylphenyl)indoline-1-carbonyl)pyrrolidine-1-carbonitrile]: the IC50 is less than 100 nM.
The figure for `N#CN1C[C@H]2CN(c3ncc(-c4ccccc4)s3)C(=O)[C@H]2C1` (relative stereo) [Example 48, (cis)-4-Oxo-5-(5-phenylthiazol-2-yl)hexahydropyrrolo[3,4-c]pyrrole-2(1H)-carbonitrile] is 1000 to 10000 nM; for `N#CN1CCC(F)(C(=O)N2CCc3cc(-c4ccnn4Cc4ccccn4)ccc32)C1` (centres unmarked) [Example 62, 3-Fluoro-3-(5-(1-(pyridin-2-ylmethyl)-1H-pyrazol-5-yl)indoline-1-carbonyl)pyrrolidine-1-carbonitrile] it is 1000 to 10000 nM.
Take `CCN(C(=O)C1CCN(C#N)C1)c1nc(-c2ccccc2)cs1` (centres unmarked) [Example 1, 1-Cyano-N-ethyl-N-(4-phenylthiazol-2-yl)pyrrolidine-3-carboxamide]: the IC50 fell in the range of 1000 to 10000 nM.
Take `N#CN1CC[C@H](C(=O)N2CCc3c(-c4ccccc4)ccnc32)C1` [Example 27, (S)-3-(4-Phenyl-2,3-dihydro-1H-pyrrolo[2,3-b]pyridine-1-carbonyl)pyrrolidine-1-carbonitrile]: the IC50 lay in the range of 100 to 1000 nM.
In the case of `CN(Cc1nc2ccccc2s1)C(=O)C1CCN(C#N)C1` (centres unmarked) [Example 45, N-(Benzo[d]thiazol-2-ylmethyl)-1-cyano-N-methylpyrrolidine-3-carboxamide], the IC50 is 1000 to 10000 nM.
The figure for `N#CN1CCC(F)(C(=O)N2CCc3cc(-c4ccnn4Cc4cccc(Cl)c4)ccc32)C1` (centres unmarked) [Example 65, 3-(5-(1-(3-Chlorobenzyl)-1H-pyrazol-5-yl)indoline-1-carbonyl)-3-fluoropyrrolidine-1-carbonitrile] is 100 to 1000 nM; for `N#CN1CCC(F)(C(=O)N2CCc3cc(-c4ccnn4Cc4ccccc4Cl)ccc32)C1` (centres unmarked) [Example 64, 3-(5-(1-(2-Chlorobenzyl)-1H-pyrazol-5-yl)indoline-1-carbonyl)-3-fluoropyrrolidine-1-carbonitrile] it is 1000 to 10000 nM; for `N#CN1CCC(C(=O)N2CCc3nc(-c4ccccc4)ccc32)C1` (centres unmarked) [Example 51, 3-(5-Phenyl-2,3-dihydro-1H-pyrrolo[3,2-b]pyridine-1-carbonyl)pyrrolidine-1-carbonitrile] it is 1000 to 10000 nM.
Turning to `N#CN1CC[C@@H](C(=O)N2CCOc3ccc(-c4ccccc4)cc32)C1` [Example 25, (R)-3-(6-Phenyl-3,4-dihydro-2H-benzo[b][1,4]oxazine-4-carbonyl)pyrrolidine-1-carbonitrile], the IC50 is 100 to 1000 nM.
The same measure for `N#CN1CC[C@H](C(=O)N2CCc3cc(-c4ccccc4)cnc32)C1` [Example 21, (S)-3-(5-Phenyl-2,3-dihydro-1H-pyrrolo[2,3-b]pyridine-1-carbonyl)pyrrolidine-1-carbonitrile]: 1000 to 10000 nM; for `N#CN1CC[C@@H](C(=O)N2CCOc3cc(-c4ccccc4)ccc32)C1` [Example 24, (R)-3-(7-Phenyl-3,4-dihydro-2H-benzo[b][1,4]oxazine-4-carbonyl)pyrrolidine-1-carbonitrile]: 100 to 1000 nM.
As for `C[C@@H]1CN(C#N)C[C@H]1C(=O)N1CCc2cc(-c3ccccc3)ccc21` [Example 19, (3S,4S)-3-Methyl-4-(5-phenylindoline-1-carbonyl)pyrrolidine-1-carbonitrile], the IC50 was in the range of 100 to 1000 nM.
For `Cn1cc(-c2cc3c(cc2C#N)N(C(=O)[C@H]2CCN(C#N)C2)CC3)cn1` [Example 29, (S)-1-(1-Cyanopyrrolidine-3-carbonyl)-5-(1-methyl-1H-pyrazol-4-yl)indoline-6-carbonitrile], the IC50 fell in the range of 1000 to 10000 nM.
`CN(C(=O)[C@H]1CN(C#N)C[C@@H]1CO)c1ncc(-c2ccccc2)s1` (relative stereo) [Example 34, (trans)-1-Cyano-4-(hydroxymethyl)-N-methyl-N-(5-phenylthiazol-2-yl)pyrrolidine-3-carboxamide]: the IC50 was in the range of 100 to 1000 nM.
`N#CN1CCC(F)(C(=O)N2CCc3cc(-c4cnn(Cc5ccccc5)c4)ccc32)C1` (centres unmarked) [Example 59, 3-(5-(1-Benzyl-1H-pyrazol-4-yl)indoline-1-carbonyl)-3-fluoropyrrolidine-1-carbonitrile]: the IC50 lay within 1000 to 10000 nM.

(Values after patent US10640498B2, “Compounds” (MISSION THERAPEUTICS LIMITED, priority 2016, dated 2020).)
